# Key:
# [1] = ref Chung et al., 2021, Matusik et al., 2022, cited from earlier work
# Excerpt: In pediatric patients, vancomycin pharmacokinetics can be highly variable due to age-related differences in drug absorption, distribution, metabolism, and elimination. Population pharmacokinetic models provide quantitative and semi-quantitative frameworks for optimizing dosing regimens. They achieve this by identifying sources of variability, by determining factors that influence the pharmacokinetic behavior of the drug, and quantifying the magnitude of unexplained variability ([Stockmann et al., 2013]).
# [2] = within 24 h; ref Shimamoto et al., 2021; Le et al., 2013; cited from earlier work
# [3] = Population pharmacokinetic analysis (nonlinear mixed-effects, one-compartment) of vancomycin therapeutic drug monitoring data in critically ill patients
# Excerpt: This retrospective study used medical records of critically ill patients hospitalized in Kaohsiung Veterans General Hospital, Taiwan, from 1 January 2014, to 31 December 2016. The study was approved by the Kaohsiung Veteran General Hospital Institutional Review Board (certificate number VGHKS18-CT9-12). A waiver of informed consent was granted as the data were collected retrospectively from medical records. The identity of the study subjects was masked through the use of a study identifier. Data were de-identified. […] Patients were excluded if vancomycin concentrations in blood could not be detected or if there were incomplete data on the vancomycin regimen. As per the study protocol the blood samples were collected >1 h after the end of dose administration (peak concentration) and within 30 min before the next dose (trough concentration). Trough and peak concentrations obtained after administering at least four equal repeated doses were referred to as the steady-state concentrations.
# Data abstracted included height, weight, age, principal diagnosis at admission, whether an open-heart surgery had been performed, serum creatinine concentrations, whether extracorporeal membrane oxygenation (ECMO), and vancomycin dosage, frequency, route, speed, and administration time indications for the use of vancomycin. The estimated glomerular filtration rate (eGFR) was calculated using the bedside Schwartz equation from serum creatinine values ([Schwartz et al., 2009]). There were nine distinct diagnostic categories at admission. To improve simplicity and interpretability, diagnoses were grouped into two major categories based on clinical differences, depending on the severity of the bacterial infection for which vancomycin was used. The first category (severe infections) corresponded to people diagnosed with pneumonia/bacteremia/osteomyelitis/meningitis/deep tissue infection, and the second category (mild infections) included people diagnosed with cellulitis/surgical prevention/neutropenic fever/others.
# Vancomycin plasma concentrations were transformed into their natural logarithms. The corresponding concentration versus time plot was placed on a logarithmic scale for all the subjects to address normality. The concentration-time profiles were characterized using nonlinear mixed-effects modeling using Phoenix NLME (Certara Inc. version 8.2). Concentrations below the lower limit of detection (LLOD) were excluded from the analysis. Concentrations below the lower limit of quantitation (LLOQ) were divided by two to obtain an unbiased conservative estimate of the true concentration. One- and two-compartment models with first-order elimination with additive, proportional, and combined error models were considered for the base model. The between-subject variability was normally distributed with a mean equal to 0 and variance equal to ω^2. The allometric scaling exponent for clearance and volume of distribution were fixed at 0.75 and 1, respectively ([Holford, 1996]; [Chung et al., 2021]). The models were run with the FOCE-ELS algorithm and simple run mode. […] Weight was applied a priori to the base model. A sensitivity analysis was performed after the final structural model selection, and the initial estimates were changed to evaluate the robustness of the model.
# The clinically relevant categorical covariates that were investigated included the major diagnosis category/infection severity, extracorporeal membrane oxygenation (ECMO) status, and surgery status. Covariate investigation was conducted in stepwise covariate search run mode in Phoenix (Phoenix®, version 8.2, Certara, Princeton, NJ) using stepwise forward inclusion followed by stepwise backward elimination. The models were assessed by a reduction or increase in the objective function value (OFV), equal to −2*log likelihood. During forward selection, any covariate that reduced the OFV by > 3.84 [p < 0.05, χ2 distribution with 1 degree of freedom (df)] was significant.
# [4] = calculated from final model, median weight, ηCl = 0
# [5] = non-parametric bootstrap of final model, 1,000 datasets
# [6] = non-parametric bootstrap, 1,000 datasets
smiles,measurement,setting,value
CN[C@H](CC(C)C)C(=O)N[C@H]1C(=O)N[C@@H](CC(N)=O)C(=O)N[C@H]2C(=O)N[C@H]3C(=O)N[C@H](C(=O)N[C@H](C(=O)O)c4cc(O)cc(O)c4-c4cc3ccc4O)[C@H](O)c3ccc(c(Cl)c3)Oc3cc2cc(c3O[C@@H]2O[C@H](CO)[C@@H](O)[C@H](O)[C@H]2O[C@H]2C[C@](C)(N)[C@H](O)[C@H](C)O2)Oc2ccc(cc2Cl)[C@H]1O [vancomycin],"half-life, HDF",[1]; dialysis mode hemodiafiltration,2.1 h
same,"half-life, HD",[1]; dialysis mode hemodialysis,3.5 h
same,administered dose excreted unchanged,[2],approximately 90%
same,"Clearance value, patients with severe infections","[3]; DIAG = 0 (pneumonia/bacteremia/osteomyelitis/meningitis/deep tissue infection), calculated from final model, median weight (12.6 kg), ηCl = 0",1.03 L/h
same,"Clearance value, patients with mild infections","[3]; DIAG = 1 (cellulitis/surgical prevention/neutropenic fever/others), calculated from final model, median weight (12.6 kg), ηCl = 0",0.63 L/h
same,"Clearance value, patients without ECMO","[3]; ECMO = 0, calculated from final model for an individual of median weight (12.6 kg), ηCl = 0",1.03 L/h
same,"% difference (reduction) in clearance, ECMO versus non-ECMO patients",[3]; [4],∼56%
same,"% difference (reduction) in clearance, mild versus severe infections",[3]; [4],∼39%
same,"tvCL, bootstrap median",[3]; [5],1.01 L/h
same,"tvV, bootstrap median",[3]; [5],11.85 L
same,"dCldDiag, bootstrap median",[3]; [6],−0.48
same,"dCldECMO, bootstrap median",[3]; [6],−0.79
same,"tvV, typical value of volume of distribution, final model estimate","[3]; one-compartment model, first-order elimination, proportional error, Phoenix NLME FOCE-ELS, IV infusion, 90 critically ill Asian patients, 263 samples, typical individual 12.6 kg, allometric exponent 1 fixed",11.61 L

# From article PMC11897554, “Pharmacokinetic effect of disease severity and use of extracorporeal membrane oxygenation in critically ill Asian patients receiving vancomycin” (Frontiers in Pharmacology, 2025)
